{
  "source": "patent US20080318880A1",
  "about": "“Neoadjuvant treatment of Breast Cancer” (The University of Manitoba, priority 2002, published 2008)",
  "system": "inflammatory or T3 to T4 breast cancer",
  "experiment": "Phase II clinical trial of neoadjuvant DPPE plus anthracycline/taxane chemotherapy",
  "assay_type": "in vivo, human",
  "procedure": "In the neoadjuvant treatment of inflammatory or T3 to T4 breast cancer, the diphenyl compound preferably is used in an amount of about 3 to about 10 mg/kg of patient, administered intravenously over a period of about 30 to about 90 minutes prior to administration of the chemotherapeutic agents and continuing for the period of administration of the chemotherapy agent. In the specific Phase II clinical trial described herein, there was employed 6 mg/kg of DPPE in the form of its hydrochloride salt, administered intravenously as an aqueous solution thereof over 80 minutes, with the last twenty minutes being accompanied by infusion of the chemotherapeutic agents, followed by the intravenous administration of an aqueous solution at a dose of 2.5 mg/kg of DPPE for 180 minutes accompanied by the infusion of Taxol® or for 60 minutes accompanied by the infusion of Taxotere®. The chemotherapy agents which are employed herein preferably are used in a total amount of 75 to about 225 mg/M^2 of patient consistent with the identity of the chemotherapy agent. The chemotherapeutic agents may be administered in an amount of about 50 to about 60 mg/M^2 of patient for doxorubicin or epirubicin, about 175 to about 225 mg/M^2 of Taxol® and about 75 to about 100 mg/M^2 of Taxotere®. In the specific Phase II clinical trial described herein, there was employed 50 mg/M^2 of doxorubicin or epirubicin, and 175 mg/M^2 of Taxol® or 75 mg/M^2 of Taxotere®, administered over the last 20 minutes of infusion of the DPPE solution and over a further 180 minutes for Taxol® or 60 minutes for Taxotere®, accompanied by infusion of a 2.5 mg/kg of DPPE solution. As noted above, patients with inflammatory breast cancer or T3 to T4 breast cancer are subjected to a number of cycles of chemotherapy at predetermined intervals to reduce the size of the tumor to an operable size. The number of cycles for each patient is generally about 5 to about 8 cycles, with about 21 to about 28 days between each cycle. In the Phase II clinical trial, patients were subjected to 6 cycles at time intervals of 21 days. A Phase II clinical trial was carried out in which patients (N=8) with inflammatory (N=7) and T3 to T4 (N=1) breast cancer were treated with a combination of DPPE and epirubicin (EPI)/Taxol® (N=5), a combination of DPPE and doxorubicin (DOX)/Taxol® (N=2) and DPPE and a combination of DPPE and epirubicin/Taxotere® (N=1). DPPE was administered at a dose of […] over 80 minutes with a combination of epirubicin or doxorubicin at a dose of 50 mg/M^2 and Taxol® at a dose of 175 mg/M^2 or Taxotere® at a dose of 75 mg/M^2 over the last 20 minutes and during a further 180 minutes for Taxol® or 60 minutes for Taxotere®, at a dose of 2.5 mg/kg. The treatment was repeated at 21 day intervals for 6 cycles. The eight patients with inflammatory or T3 to T4 breast cancer had no previous chemo- or radiotherapy. When the chemotherapy cycles were complete, the cancerous tissue was removed and the patients observed. The results obtained are shown in Table I. In this Table, the abbreviation TTP stands for time to progression and the abbreviation OS stands for overall survival. […] This patient remains disease-free at 55+ months.",
  "key": {"[1]": {"details": "8 patients pooled: 5 DPPE/EPI/TAXOL, 2 DPPE/DOX/TAXOL, 1 DPPE/EPI/TAXOTERE"}, "[2]": {"details": "number of patients of 8, first figure of cell, same regimens"}, "[3]": {"details": "number of patients of 8, second figure of cell, marked *, same regimens"}},
  "note": "“And” between values parts separate entries of the source, which are not always exact repeats. Equal values may be shown once.",
  "data": [
    {"compound": "CCN(CC)CCOc1ccc(Cc2ccccc2)cc1", "note": "[DPPE, N,N-diethyl-2-[4-(phenylmethyl)-phenoxy]ethanamine]", "values": [
      {"measurement": "OS (overall survival), median", "setting": "[1]", "value": "43+ mos."},
      {"measurement": "TTP (time to progression), median", "setting": "[1]", "value": 21, "unit": "mos."},
      {"measurement": "overall outcome of trial", "setting": "DPPE along with doxorubicin/epirubicin and Taxol/Taxotere", "value": "effective neoadjuvant treatment which lead to long term survival post surgery"},
      {"measurement": "Response CR", "setting": "number of patients of 8, first figure of cell (not marked as pathological criteria), DPPE 6 mg/M^2 over 80 min + epirubicin or doxorubicin 50 mg/M^2 + Taxol 175 mg/M^2 or Taxotere 75 mg/M^2, 6 cycles at 21 day intervals", "value": 4},
      {"measurement": "Response NR", "setting": "[2]", "value": 1},
      {"measurement": "Response PR", "setting": "[2]", "value": 3},
      {"measurement": "Response CR, pathological criteria", "setting": "number of patients of 8, second figure of cell, marked * (pathological criteria), same regimens", "value": 2},
      {"measurement": "Response NR, pathological criteria", "setting": "[3]", "value": 2},
      {"measurement": "Response PR, pathological criteria", "setting": "[3]", "value": 4},
      {"measurement": "response of individual patient", "setting": "third patient, only high-grade cells on cytology", "value": "clinical/pathological complete remission"},
      {"measurement": "disease-free time of individual patient", "setting": "third patient, with complete remission", "value": "≥ 55", "unit": "months"},
      {"measurement": "high-grade tumor component post-surgery", "setting": "two long-term survivors with mixed high-grade tumors pre-treatment", "value": "no high-grade component post-surgery"},
      {"measurement": "survival of individual long-term survivors", "setting": "two patients with mixed high-grade tumors pre-treatment", "value": "≥ 45 months and ≥ 53 months"}
    ]}
  ]
}
